Entries after “also recorded” stand apart in the source; their conditions may differ.
What was measured:
14-3-3ζ KO rats = assay: Pristane-induced arthritis in 14-3-3ζ KO rats, 14-3-3ζ immunization; type: in vivo, rat; conditions: IFA+14-3-3ζ vs IFA, days post-pristane
Source text: FIGS. 16A-16B, to determine whether 14-3-3ζ is sufficient for RA suppression, 14-3-3ζ KO rats that are more susceptible to RA were used.

human PBMCs [1] = assay: T cell polarization of PBMCs by flow cytometry (CD4, CD366, IL-17, CD8, CD69); type: cell-based; conditions: incubated with 14-3-3ζ, 3 d
human PBMCs [2] = assay: as above; type: cell-based
Description: Cells were plated with 14-3-3ζ protein in a 96-well plate for 14 days at 37° C. in complete RPMI culture medium. Phytohemagglutinin (PHA) was used as a positive control. 10 μl MTT was added at a concentration of 5 mg/mL, and the plate was further incubated at 37° C. in the dark for 3 hours. Supernatant was then removed, and 100 μL DMSO was added for another hour before reading the absorbance at 570 nm using FLUOstar Omega microplate reader (BMG Labtech). For T cell differentiation, PBMCs were incubated with 1 μg/ml of 14-3-3ζ for 7 days followed by either the cellular staining for FACS analysis or ELISPOT as per manufacture's protocol. […] PBMCs incubated with 14-3-3ζ for 7 days at 37° C. were fixed in 2% paraformaldehyde for an hour, and washed with PBS. […] For surface staining, cells were stained in 50 μL PBS with 5 μl per million cells antibody for 30 minutes in the dark on ice. For intracellular staining, cells were permeabilized with Triton for 10-15 min. After staining, cells were washed with PBS and resuspended in 1 mL PBS for analysis. The following antibodies from Biolegend Inc. were used: […] Cells were sorted at FACSCanto II system (BD Biosciences) and analyzed using FlowJo software (version 10). A gate was created around an initial population of cells in the FSC-SSC plot, and this population of cells was further analyzed for CD4, CD366, and IL-17 expression. Unstained and isotype labelled cells were used as a control for setting the gates.

human PBMCs [3] = assay: ELISA of secreted (accumulated) cytokines of PBMCs; type: cell-based; conditions: PBMC in the presence of 14-3-3ζ
Lewis rats = assay: Pristane-induced arthritis (PIA) model, immunization with 14-3-3ζ in IFA; type: in vivo, rat
Description: FIG. 12A depicts the process used for this example for evaluating the prevention of RA in rats. All animals were injected with 150 μl of Pristane subcutaneously at the root of the tail followed by injecting either 1 mg/kg of IFA mixed with 14-3-3ζ protein or IFA alone the next day. Additional injection of either IFA alone or mixed with 14-3-3ζ proteins were given after one week. Animals were evaluated twice every week. Each joint (20 per paw, total of 80 per animal) was scored for inflammation. Both male and female rats were equally divided (n=6-8) between IFA and 14-3-3ζ treated sets. Rats were euthanized at 43 d and blood was collected for analysis.
Exposure to 14-3-3ζ generates a strong immune response in Lewis rats. Due to highly reproducible induction of severe inflammation and chronic arthritis, PIA is a one of the standard models to investigate rheumatoid arthritis an autoimmune disease. Intradermal injection of Pristane leads to a strong T-cell infiltration, followed by a cytokine increase as well as visual manifestation of joint inflammation, prominently observed in the Lewis rats. To test the antigenic role of 14-3-3ζ in vivo, purified 14-3-3ζ protein was injected along with IFA one day after the animals were treated with Pristane (FIG. 12A).
The animals were immunized with either IFA alone, or mixed with 14-3-3ζ (IFA+Z, 1 mg/kg) at 1 and 7 d-post pristine injection. Animals were monitored and scored for RA.

[4] = system: PBMC isolated from normal Lewis rats; assay: Proliferation of rat PBMC incubated ex vivo; type: cell-based; conditions: incubated with 14-3-3ζ ex vivo
rats = assay: Immunization of rats with IFA and 14-3-3ζ without pristane; type: in vivo, rat; conditions: pristane absent
human PBMCs [5] = assay: PBMC proliferation, MTT assay; type: cell-based; conditions: purified 14-3-3ζ 300 ng/ml and 1000 ng/ml, by 8 d; PHA 1% positive control
Description: Blood from healthy donors was collected as per the approved IRB protocol. The protocol for isolation of PBMCs was previously reported. In short, whole blood was diluted with an equal volume of RPMI before layering on Ficoll-Paque PLUS in a 15 mL tube. Tubes were then centrifuged for 25 minutes with the brakes off at 950 g. PBMCs were collected from the layer between the plasma and Ficoll liquid. PBMCs were then washed twice with RPMI, with 7 min spins at 350×g to pellet the cells. Finally, cells were resuspended in complete RPMI before counting and plating. […] Phytohemagglutinin (PHA) was used as a positive control. 10 μl MTT was added at a concentration of 5 mg/mL, and the plate was further incubated at 37° C. in the dark for 3 hours. Supernatant was then removed, and 100 μL DMSO was added for another hour before reading the absorbance at 570 nm using FLUOstar Omega microplate reader (BMG Labtech). For T cell differentiation, PBMCs were incubated with 1 μg/ml of 14-3-3ζ for 7 days followed by either the cellular staining for FACS analysis or ELISPOT as per manufacture's protocol.

human PBMCs [6] = assay: ELISPOT assay of IFN-γ and IL-17 secreting cells; type: cell-based
Description: Cells were plated with 14-3-3ζ protein in a 96-well plate for 14 days at 37° C. in complete RPMI culture medium. Phytohemagglutinin (PHA) was used as a positive control. 10 μl MTT was added at a concentration of 5 mg/mL, and the plate was further incubated at 37° C. in the dark for 3 hours. Supernatant was then removed, and 100 μL DMSO was added for another hour before reading the absorbance at 570 nm using FLUOstar Omega microplate reader (BMG Labtech). For T cell differentiation, PBMCs were incubated with 1 μg/ml of 14-3-3ζ for 7 days followed by either the cellular staining for FACS analysis or ELISPOT as per manufacture's protocol. For testing the effect of drugs, prednisolone, prednisone, as well as TJU103, were used at 1 μg/ml concentration and cyclophosphamide was used at 0.1 μg/ml concentration.
The protocol was adopted from Immunospot kit from Cellular Technology Limited. In short, PBMCs incubated with 14-3-3ζ for 7 days were plated on the antibody coated ELISPOT plates. About 100,000 cells/well were added and incubated for 2 days at 37° C. followed by the developing protocol. Plates were read with a Quantihub ELISPOT plate reader and manually counted.

[7] = PIA treated Lewis rats immunized with 14-3-3ζ

Substance: 14-3-3ζ: human 14-3-3ζ protein, SEQ ID NO: 1, purified from E. coli; injected mixed with IFA in rats
- RA score (14-3-3ζ KO rats): suppressed the RA
- body weight (14-3-3ζ KO rats): gain in body weights
- CD69 expression on T cells (CD4 cells) (human PBMCs [1]): increases CD69 expression; also recorded: increased; also recorded: strong impact
- CD8+ cells (total number or activation) (human PBMCs [2]; 14-3-3ζ treated PBMC): No significant increase; also recorded: No change; also recorded: no significant effect
- total number of CD4+ cells (human PBMCs [2]; 14-3-3ζ treated PBMC, 7 d): no significant change
- CD4 cells positive for both CD366 and IL-17 (minor population <1%) (human PBMCs [2]; presence of 14-3-3ζ): unchanged
- CD366 or IL-17 positive CD4 cells (Th1, Th17) (human PBMCs [2]; protein 1 μg/ml, 7 d): more CD366 or IL-17 positive CD4 cells; also recorded: significant increase
- IL-6 level (human PBMCs [3]): no significant effect
- accumulated secreted IL-17 (IL-17A) (human PBMCs [3]): significant increased accumulation
- levels of IL-10 or IL-12 (human PBMCs [3]): no effect
- joint inflammation / arthritis (RA) score (Lewis rats; Lewis rats, pristane, 14-3-3ζ 1 mg/kg mixed with IFA at 1 and 7 d post pristane, compared to IFA alone, 1 mg/kg): protection against rheumatoid arthritis; also recorded: protection against the arthritis; also recorded: significantly less inflammation of joints; also recorded: significant reduction of RA scores; also recorded: absent; also recorded: relatively stronger inflammation in IFA treatment compared to 14-3-3ζ treatment; also recorded: no sign of arthritis; also recorded: prevents the development of RA
- increase in the level of IFN-γ in the circulating sera (Lewis rats; [7]): 10 to 15 folds
- increase in the level of IL-17 in the circulating sera (Lewis rats; [7]): 10 to 15 folds
- increase in the level of anti-14-3-3ζ IgG in the circulating sera (Lewis rats; [7]): 10 to 15 folds
- anti-14-3-3ζ antibody level (sera, synovial fluid) (Lewis rats; compared to IFA alone): significant production of anti-14-3-3ζ IgG; also recorded: significantly higher levels; also recorded: increased 14-3-3ζ antibody levels
- circulating (sera) IFN-γ level (Lewis rats; compared to IFA alone): significantly higher levels; also recorded: much higher levels
- circulating IL-17 level (Lewis rats; compared to IFA alone): significantly higher levels
- H&E stain: immune cell infiltration and tissue damage (Lewis rats; compared to IFA treated animal): lesser sign of inflammation and damage
- rat PBMC proliferation [4]: increased proliferation
- induction of RA pathology (pathogenicity) (rats; IFA and 14-3-3ζ): no significant induction of RA pathology
- immunogenicity: 14-3-3ζ antibody generation and IL-17 induction (rats): 14-3-3ζ antibody generation and IL-17 induction
- PBMC proliferation (MTT assay) (human PBMCs [5]): promoted; also recorded: strong proliferation induction; also recorded: comparable and dose-dependent effect
- level of IFN-γ (number of IFN-γ colonies) compared with 14-3-3ε (human PBMCs [6]; FIG. 6B and FIG. 12L): significantly more than 14-3-3ε
- number of IFN-γ and IL-17 secreting cells (human PBMCs [6]; PBMC treated with protein for 7 d): robust response; also recorded: robust increase
